One may read the IC50 as the concentration at which inhibition is half-maximal. Read a high IC50 as a need for much substance.

These results are taken from article PMC10728220, “Novel 3-(pyrazol-4-yl)-2-(1H-indole-3-carbonyl)acrylonitrile derivatives induce intrinsic and extrinsic apoptotic death mediated P53 in HCT116 colon carcinoma” (Scientific Reports, 2023).

The structures appear in SMILES notation. ≈ marks a conversion by molar mass, not a printed value. Entries after “also recorded” stand apart in the source; their conditions may differ.

One experiment has as its system HCT116 cells. Briefly: DNA fragmentation, agarose gel electrophoresis. Type of experiment: cell-based, human. The note with it: HCT116, 6.76 µg/mL, 48 h, 2% agarose gel. How it is done: Both control and treated cells were incubated for 48h. Then cells of both two samples were harvested for DNA fragmentation measurements using a SIGMA DNA fragmentation imaging kit with catalogue number 06432344001. To verify the validity of the DNA of both control and cells treated with 6.76 µg/mL of chalcone 7f, we carried out the loading of all samples on 2% agarose gel containing 1 µg/mL ethidium bromide and visualized by ultraviolet transillumination.
The DNA gel electrophoresis laddering assay in the HCT116 cell line was performed according to the instructions of Yawata[87] with some modifications. Briefly, after 48 h of exposure of the HCT116 cancer cell line to compound 7f in Petri dishes (60 × 15 mm, Greiner), the cells were suspended in 1 ml of medium and then centrifuged at 900 rpm for 10 min. […] About 1 × 10^6 cells of HCT116 were treated with the IC50 value of compound 7f. Then, the treated cells were collected via trypsinization and washed with Dulbecco’s Phosphate Buffered Saline. Afterwards, the cells were treated with the lysis buffer (5 mM ethylenediaminetetraacetic acid (EDTA), 0.5% Triton X-100, 10 mM Tris (pH 7.4), and 150 mM NaCl) for 35 min on ice. […] At last, the fragmented DNA percentage was detected by performing gel electrophoresis using 2% agarose gel containing 0.1 μg/ml ethidium bromide (Supplementary File 1).

In the next experiment the test system is Human caspase-9. Briefly: ELISA caspase 9 production in HCT116. Type of experiment: cell-based. Conditions: HCT116 treated with 7f. How it is done: The compound 7f induced caspase 9 production in a dose–response approach. This was achieved by using the following concentrations of chalcone 7f (1.6, 3.1, 6.3, 12.5, 25, 50, 100 ng/ml). There was a continuing rise in the caspase 9 production level by increasing the concentrations regularly. Compound 7f was able to stimulate the production of caspase 9 by inducing a 21.43 ng/ml of caspase 9.
The quantitative measurements of Human caspases-3, -8, and -9 concentrations in HCT116 cell culture lysates were performed using ELISA assay. The protocols were followed up based on the manuscript instructions described in the following kits; Invitrogen human Caspase-3 Elisa Kit, Catalog # KHO1091, DRG® human Caspase-8 ELISA Kit, Catalog # (EIA-4863), and DRG® human Caspase-9 ELISA Kit, Catalog # (EIA-4860)respectively. In short, the procedure described in the above protocols was as instructed; all reagents, standards, and samples were prepared. Then, 100 μL of standard or samples were added to each well and incubated at room temperature for 2 h. […] All readings were measured immediately at a wavelength of 450 nm. From the readings of the standards, a standard curve was plotted using curve fitting software. Then, the concentrations for unknown samples and controls were measured from the standard curve.

The subject of experiment [1] is normal human skin melanocyte cell line (HFB4). Put plainly: Cytotoxic MTT assay, normal HFB4 cells. The format is cell-based. Conditions: 48 h treatment. Here is the method:
MTT protocol was performed to study the viability of cells after treatment with the tested compounds. The studied cell lines (A549 and HCT116) were cultured and grown in RPMI‐1640 media, while HFB4 cells were reserved in DMEM‐F12 media. Both media were supplemented with 10% FBS, 1% L‐glutamine, and 1% antibiotic–antimycotic mixture. The cell lines were grown at conditions of 37 °C and 5% CO2. 10 × 10^3 of A549, and HCT116 cells and the same count of normal melanocytes (HFB4) were cultured in a 96‐well plate. The selected cultured cells were kept at 37°C and 5% CO2 overnight. Then, the medium was discarded after 24 h of incubation, and 100 µL from different concentrations of the studied compounds dissolved in fresh medium without serum, with final concentrations of 100, 50, 25, 12.5, 6.25, 3.125, 1.56, and 0.78 µg/mL was added. The treated cells were then incubated for 48 h. After that, 50 µL of MTT was added into each well for 4 h for the formazan crystals to be formed. Finally, 200 µl of 10% sodium dodecyl sulphate (SDS) was added to each well, and plates were kept at room temperature overnight to allow the reaction to be stopped. The optical density at 575 nm was read using a microplate multi-well reader, and the percentage of cell viability was calculated. The dose–response curve was drawn to calculate the IC50 values for each compound using the prism GraphPad 5 program, [84]. 5 Fluorouracil, a commercial anticancer drug was used as a reference drug (positive control). Negative untreated cell control was used in this assay.
Background: Formazan colour is commonly taken as a measure of viable cells.

Take `N#C/C(=C\c1cn(-c2ccccc2)nc1-c1ccc([N+](=O)[O-])cc1)C(=O)c1c[nH]c2ccccc12` [Compound 7f, (E)-2-(1H-Indole-3-carbonyl)-3-(3-(4-nitrophenyl)-1-phenyl-1H-pyrazol-4-yl)acrylonitrile]: in the experiment on HCT116 cells, the “effect on genomic DNA (DNA fragmentation)” value is “completely deteriorated the genomic DNA; also recorded: completely degraded the genomic DNA”. Moreover, in the experiment on Human caspase-9, the “caspase 9 production” value turned out to be 21.43 ng/mL and the “caspase 9 production, fold increase compared to control cells” value is around 4.641 fold. For the same compound, half-maximal inhibition in experiment [1] (IC50) required 56.7 mg/L (≈ 123 µM).
